# Measured values: patent US20050136040A1, “Control of gene expression using a complex of an oligonucleotide and a regulatory peptide” (Imperial College Innovations Limited, priority 2001, published 2005)
# [5FU] = 5-fluoro-deoxyuracil base
# How the values were obtained:
# androgen receptor gene [1] = experiment: RT-PCR of androgen receptor mRNA, LNCap cells treated with ARP-L218 and cyproterone acetate; type: cell-based, human; settings: 3 days
# Protocol: (§1) RT-PCR analysis of androgen receptor mRNA. After ethidium bromide staining the quantity of electrophoresed amplicons was determined in arbitrary units using a Labworks image reader.
# ARP-L218 was prepared in phosphate buffer saline (PBS), 0.2 μm syringed filtered and used on day of test set-up.
# (§2) LNCap cells were transfected with ARP-L218 using lipofectamine2000 (cationic activated dendrimer, InVitrogen life technologies) with/without antagonist. Various amounts of ARP-L218 were mixed with a fixed amount of lipofectamine2000 (3 μl) in a total volume of 100 μl serum free medium without antibiotics (OptiMEM). After 20 mins incubation at room temperature, the transfection mixture was added to cells at 70% confluency and cells were incubated for 3 days.
# (§3) RNA was extracted and RT-PCR analysis of AR mRNA levels conducted as described above.
# [2] = tested on: Prostate specific antigens (PSA) protein levels; experiment: Total PSA in LNCap cell supernatants, chemiluminescent immunometric assay; type: cell-based, human; settings: LNCap supernatant, 3 days
# Protocol: Cells were incubated in the presence of R1881 for 3 days. PSA levels in the supernatants were measure by ELISA. Each column represent total prostate specific antigen (PSA).
# Therefore, using the protocols described in Example 8 ARP-L218 was transfected into LNCap cells (GET/LNC/W39/P6) with Lipofectamine 2000 (InVitrogen) with or without R1881 (Perkin Elmer), a synthetic androgen, for 3 days, after which the supernatant were harvested for quantitation of total PSA protein at the Pathology Centre, Hammersrnith Hospital, London, U.K.
# PSA measurements were carried out by a chemiluminescent labelled immunometric assay using an automated immunoassay analyser (Abbott Architect Immunoassay Analyser).
# androgen receptor gene [3] = experiment: RT-PCR of androgen receptor mRNA, LNCap cells treated with ARP-L218 and R1881; type: cell-based, human; settings: 3 days; for AR mRNA Percentage of control: vs PBS treated control
# Protocol: as §1
# The effect of ARP-L218 on androgen receptor gene expression with and without a synthetic androgen (R1881) was measured using the protocol outlined in the above section.
# ARP-L218 was prepared in phosphate buffer saline (PBS), 0.2 μm syringed filtered and used on day of test set-up. R1881 (synthetic androgen) was purchased from Perkin Elmer, Catalogue number NLP005005MG.
# as §2, with “agonist.” for “antagonist.”
# as §3
# PSA = experiment: Secreted PSA by immunoassay in LnCap cells with or without R1881 (Example 2); type: cell-based, human; settings: LnCap control cells (no or irrelevant oligonucleotide-peptide fusion), 72 hours
# Protocol: In an example, the prostate cancer cell line LnCap is treated with the oligonucleotide-peptide fusion comprising a MAD1 or Sap18 peptide as described in Example 1. Transfected cells are optionally identified and/or isolated (for example using a GFP marker and FACS techniques) and are assayed for androgen receptor gene expression as well as for the classic prostate cancer marker PSA. For example, GFP-positive, FACS sorted cells were cultured in the presence or absence of the AR agonist R1881. After 72 hours, culture media were collected and the amount of the androgen-regulated protein PSA determined by immunoassay. Addition of R1881 results in an approximately 25-fold increase in levels of secreted PSA in control cells (with no oligonucleotide-peptide fusion, or an irrelevant oligonucleotide-peptide fusion).
# [4] = tested on: interferon stimulated response element (IRE) of the human 6-16 gene; experiment: Interferon-induced EGFP expression by FACS in modified HT1080 cells (C8); type: cell-based; settings: for Interferon-induced GFP expression: +INF 300 units/ml for one day
# Protocol: Cells habouring EGFP under the control of the interferon stimulated response element (ISRE) of the human 6-16 gene were transiently transfected with different compounds. Cells were then treated with 300 units/ml of IFN for one day and analysed by FACS for the GFP expression. • a) Parental cell line, no treatment • b) Cells expressing the stably transfected construct (C8), no treatment • c) C8 treated with interferon (+INF) • d) C8 transfected with 500 pm TFO, +INF • e) C8 specific TFO 1000 pM, +INF • f) C8, GeneICE1 500 pM, +INF • g) C8, GeneICE 2 500 pM, +INF • h) C8, unspecific control TFO 500 pM, +INF • i) C8, unspecific control TFO 1000 pM, +INF
# These cells have a stably incorporated gene expressing EGFP under the control of the interferon stimulated response element (IRE) of the human 6-16 gene.
# For the following data, cells were transiently transfected with different compounds using standard lipofectamine protocols. Cells were then treated with 300 units/ml of interferon (INF) for one day and analysed by FACS for the GFP expression.
molecule,measurement,setting,value
"CC(=O)O[C@]1(C(C)=O)CC[C@H]2[C@@H]3C=C(Cl)C4=CC(=O)[C@@H]5C[C@@H]5[C@]4(C)[C@H]3CC[C@@]21C [Cyproterone Acetate, Cyproterone acetate]",androgen receptor gene expression levels (in words),androgen receptor gene [1],can act to reduce AR gene expression
same,AR band quantitation,androgen receptor gene [1]; Cyproterone Acetate 0.1 nM,2357
same,AR mRNA % of control,androgen receptor gene [1]; Cyproterone Acetate 0.1 nM,54.0%
same,AR band quantitation,androgen receptor gene [1]; Cyproterone Acetate 10 nM,2401
same,AR mRNA % of control,androgen receptor gene [1]; Cyproterone Acetate 10 nM,51.5%
same,AR band quantitation,androgen receptor gene [1]; Cyproterone Acetate 1 uM,1868
same,AR mRNA % of control,androgen receptor gene [1]; Cyproterone Acetate 1 uM,47.8%
same,AR band quantitation,androgen receptor gene [1]; Cyproterone Acetate 10 uM,1568
C[C@]1(O)CC[C@H]2[C@@H]3CCC4=CC(=O)CCC4=C3C=C[C@@]21C [R1881],effect on PSA levels (in words),[2],show an increase in PSA levels
same,Total PSA,[2]; R1881 0.01 nM,372 ng/mL
same,Total PSA,[2]; R1881 100 nM,1980 ng/mL
same,androgen receptor gene expression levels (in words),androgen receptor gene [3],can act to reduce AR gene expression
same,AR Ratio/beta-actin,androgen receptor gene [3]; R1881 0.01 nM,0.237
same,AR band quantitation,androgen receptor gene [3]; R1881 0.01 nM,2083
same,AR band quantitation Average,androgen receptor gene [3]; R1881 0.01 nM,2083
same,AR mRNA Percentage of control,androgen receptor gene [3]; R1881 0.01 nM,71.73%
same,AR Ratio/beta-actin,androgen receptor gene [3]; R1881 1 nM,0.103
same,AR band quantitation,androgen receptor gene [3]; R1881 1 nM,1471
same,AR band quantitation Average,androgen receptor gene [3]; R1881 1 nM,1471
same,AR mRNA Percentage of control,androgen receptor gene [3]; R1881 1 nM,31.29%
same,AR Ratio/beta-actin,androgen receptor gene [3]; R1881 100 nM,0.116
same,AR band quantitation,androgen receptor gene [3]; R1881 100 nM,1455
same,AR band quantitation Average,androgen receptor gene [3]; R1881 100 nM,1455
same,AR mRNA Percentage of control,androgen receptor gene [3]; R1881 100 nM,35.17%
same,AR Ratio/beta-actin,androgen receptor gene [3]; R1881 1 uM,0.165
same,AR band quantitation,androgen receptor gene [3]; R1881 1 uM,1388
same,AR band quantitation Average,androgen receptor gene [3]; R1881 1 uM,1388
same,AR mRNA Percentage of control,androgen receptor gene [3]; R1881 1 uM,49.92%
same,increase in levels of secreted PSA on addition of R1881,PSA,approximately 25 fold
"specific TFO: IRE TFO (5′) GGGUGGTGGGGTTGTGTT (3′), U = 5-fluro-deoxyuracil, without peptide (DNA, [5FU] at 4, backbone not given here)",Interferon-induced GFP expression,[4]; 500 pM,53%
same,Interferon-induced GFP expression,[4]; 1000 pM,63%
same,average repression of INF induced GFP expression,"[4]; +INF, average over the conditions of Table 4",42%
